The results in this text go back to patent US9505726B2, “Substituted biphenyl amides as P2X3 and P2X2/3 antagonists” (Roche Palo Alto LLC, priority 2009, dated 2016).

The assay concerns the target T1, rat P2X3 receptor (Rattus norvegicus, UniProt P49654).
T1 construct: expressed in transfected cells; host or cells: CHO-K1
T1 sequence (P49654 1-397): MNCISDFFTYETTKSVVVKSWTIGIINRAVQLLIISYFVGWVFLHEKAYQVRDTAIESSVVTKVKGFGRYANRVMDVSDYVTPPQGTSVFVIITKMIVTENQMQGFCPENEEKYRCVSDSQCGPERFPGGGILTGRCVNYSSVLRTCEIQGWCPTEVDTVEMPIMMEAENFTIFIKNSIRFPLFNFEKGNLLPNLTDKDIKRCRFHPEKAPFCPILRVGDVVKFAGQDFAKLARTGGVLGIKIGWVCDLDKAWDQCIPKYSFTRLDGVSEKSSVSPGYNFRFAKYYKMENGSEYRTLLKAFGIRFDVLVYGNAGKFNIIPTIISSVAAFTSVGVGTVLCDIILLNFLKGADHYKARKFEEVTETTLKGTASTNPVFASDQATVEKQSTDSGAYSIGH
The assay is described as follows: P2X3 FLIPR (Fluorometric Imaging Plate Reader) assay. As to conditions: CHO-K1 cells transfected with cloned rat P2X3; agonist α,β-meATP 1 μM; Fluo-3 AM calcium fluorescence. The class given is cell-based. As to the method:
CHO-K1 cells were transfected with cloned rat P2X3 or human P2X2/3 receptor subunits and passaged in flasks. 18-24 hours before the FLIPR experiment, cells were released from their flasks, centrifuged, and resuspended in nutrient medium at 2.5×10^5 cells/ml. The cells were aliquoted into black-walled 96-well plates at a density of 50,000 cells/well and incubated overnight in 5% CO2 at 37° C. On the day of the experiment, cells were washed in FLIPR buffer (calcium- and magnesium-free Hank's balanced salt solution, 10 mM HEPES, 2 mM CaCl2, 2.5 mM probenecid; FB). Each well received 100 μl FB and 100 μl of the fluorescent dye Fluo-3 AM [2 μM final conc.]. After a 1 hour dye loading incubation at 37° C., the cells were washed 4 times with FB, and a final 75 μl/well FB was left in each well.
Test compounds (dissolved in DMSO at 10 mM and serially diluted with FB) or vehicle were added to each well (25 μl of a 4× solution) and allowed to equilibrate for 20 minutes at room temperature. The plates were then placed in the FLIPR and a baseline fluorescence measurement (excitation at 488 nm and emission at 510-570 nm) was obtained for 10 seconds before a 100 μl/well agonist or vehicle addition. The agonist was a 2X solution of α,β-meATP producing a final concentration of 1 μM (P2X3) or 5 μM (P2X2/3). Fluorescence was measured for an additional 2 minutes at 1 second intervals after agonist addition. A final addition of ionomycin (5 μM, final concentration) was made to each well of the FLIPR test plate to establish cell viability and maximum fluorescence of dye-bound cytosolic calcium. Peak fluorescence in response to the addition of α,β-meATP (in the absence and presence of test compounds) was measured and inhibition curves generated using nonlinear regression. PPADS, a standard P2X antagonist, was used as a positive control.

For `COCC(C)NC(=O)c1cc(NC(=O)c2cc(C)cs2)cc(-c2ccc(C)cc2)c1` (stereo not shown) [Compound 1, 4-Methyl-thiophene-2-carboxylic acid [5-(2-methoxy-1-methyl-ethylcarbamoyl)-4′-methyl-biphenyl-3-yl]-amide], the “P2X3 (pIC50 values for the P2X3 receptor)” value is 6.31.

`COCC(C)NC(=O)c1cc(NC(=O)c2ccc(C)s2)cc(-c2ccc(C)cc2)c1` (stereo not shown) [Compound 2, 5-Methyl-thiophene-2-carboxylic acid [5-(2-methoxy-1-methyl-ethylcarbamoyl)-4′-methyl-biphenyl-3-yl]-amide]: the “P2X3 (pIC50 values for the P2X3 receptor)” value turned out to be 5.2.

As for `COCC(C)NC(=O)c1cc(NC(=O)c2ccco2)cc(-c2ccc(C)cc2)c1` (stereo not shown) [Compound 3, Furan-2-carboxylic acid [5-(2-methoxy-1-methyl-ethylcarbamoyl)-4′-methyl-biphenyl-3-yl]-amide], the “P2X3 (pIC50 values for the P2X3 receptor)” value was determined as 5.66.

In the case of `COCC(C)NC(=O)c1cc(NC(=O)c2cccs2)cc(-c2ccc(C)cc2)c1` (stereo not shown) [Compound 4, Thiophene-2-carboxylic acid [5-(2-methoxy-1-methyl-ethylcarbamoyl)-4′-methyl-biphenyl-3-yl]-amide], the “P2X3 (pIC50 values for the P2X3 receptor)” value is 5.51.

For `COCC(C)NC(=O)c1cc(NC(=O)c2ccccc2)cc(-c2ccc(C)cc2)c1` (stereo not shown) [Compound 5, 5-Benzoylamino-4′-methyl-biphenyl-3-carboxylic acid (2-methoxy-1-methyl-ethyl)-amide], the “P2X3 (pIC50 values for the P2X3 receptor)” value came to 5.69.

With `COCC(C)NC(=O)c1cc(NC(=O)c2ccccn2)cc(-c2ccc(C)cc2)c1` (stereo not shown) [Compound 6, Pyridine-2-carboxylic acid [5-(2-methoxy-1-methyl-ethylcarbamoyl)-4′-methyl-biphenyl-3-yl]-amide], the “P2X3 (pIC50 values for the P2X3 receptor)” value turned out to be 5.62.

As for `COCC(C)NC(=O)c1cc(NC(=O)C2CCCCC2)cc(-c2ccc(C)cc2)c1` (stereo not shown) [Compound 7, 5-(Cyclohexanecarbonyl-amino)-4′-methyl-biphenyl-3-carboxylic acid (2-methoxy-1-methyl-ethyl)-amide], the “P2X3 (pIC50 values for the P2X3 receptor)” value turned out to be 5.49.

As for `COCC(C)NC(=O)c1cc(NC(=O)c2ccc(C)cc2C)cc(-c2ccc(C)cc2)c1` (stereo not shown) [Compound 8, 5-(2,4-Dimethyl-benzoylamino)-4′-methyl-biphenyl-3-carboxylic acid (2-methoxy-1-methyl-ethyl)-amide], the “P2X3 (pIC50 values for the P2X3 receptor)” value is given as 5.35.

Regarding `COCC(C)NC(=O)c1cc(NC(=O)c2ccc(F)cc2Cl)cc(-c2ccc(C)cc2)c1` (stereo not shown) [Compound 9, 5-(2-Chloro-4-fluoro-benzoylamino)-4′-methyl-biphenyl-3-carboxylic acid (2-methoxy-1-methyl-ethyl)-amide], the “P2X3 (pIC50 values for the P2X3 receptor)” value is 5.44.

In the case of `COCC(C)NC(=O)c1cc(NC(=O)c2ccc(C(F)(F)F)cc2Cl)cc(-c2ccc(C)cc2)c1` (stereo not shown) [Compound 10, 5-(2-Chloro-4-trifluoromethyl-benzoylamino)-4′-methyl-biphenyl-3-carboxylic acid (2-methoxy-1-methyl-ethyl)-amide], the “P2X3 (pIC50 values for the P2X3 receptor)” value was found to be 5.87.

Turning to `COCC(C)NC(=O)c1cc(NC(=O)c2cscn2)cc(-c2ccc(C)cc2)c1` (stereo not shown) [Compound 11, Thiazole-4-carboxylic acid [5-(2-methoxy-1-methyl-ethylcarbamoyl)-4′-methyl-biphenyl-3-yl]-amide], the “P2X3 (pIC50 values for the P2X3 receptor)” value stood at 5.56.

Take `COCC(C)NC(=O)c1cc(NC(=O)c2c(-c3ccccc3)noc2C)cc(-c2ccc(C)cc2)c1` (stereo not shown) [Compound 12, 5-Methyl-3-phenyl-isoxazole-4-carboxylic acid [5-(2-methoxy-1-methyl-ethylcarbamoyl)-4′-mcthyl-biphenyl-3-yl]-amide]: the “P2X3 (pIC50 values for the P2X3 receptor)” value is 5.59.

On to `COCC(C)NC(=O)c1cc(NC(=O)c2nc(C)oc2C)cc(-c2ccc(C)cc2)c1` (stereo not shown) [Compound 13, 2,5-Dimethyl-oxazole-4-carboxylic acid [5-(2-methoxy-1-methyl-ethylcarbamoyl)-4′-methyl-biphenyl-3-yl]-amide], for which the “P2X3 (pIC50 values for the P2X3 receptor)” value turned out to be 5.93.
